# Experimental data taken from ChEMBL document CHEMBL3885881, “DrugMatrix”.
# Species: Rattus norvegicus
# Test: DrugMatrix - Regimen: Daily Repeat
# Format: toxicity, organism-based, Sprague-Dawley
# Design: regimen Daily Repeat, gender Male, age 6-8 weeks
# Details: in vivo, iv, vehicle 100 % SALINE; for ABSOLUTE BASOPHIL / ABSOLUTE EOSINOPHIL / ABSOLUTE LYMPHOCYTE / ABSOLUTE MONOCYTE / ABSOLUTE SEGMENTED NEUTROPHIL / BASOPHIL / EOSINOPHIL / ERYTHROCYTE COUNT / HEMATOCRIT / HEMOGLOBIN / LEUKOCYTE COUNT / LYMPHOCYTE / MEAN CORPUSCULAR HEMOGLOBIN / MEAN CORPUSCULAR HEMOGLOBIN CONCENTRATION / MEAN CORPUSCULAR VOLUME / MONOCYTE / NEUTROPHIL / NUCLEATED RED BLOOD CELLS / PLATELET COUNT: tissue Blood; for ALANINE AMINOTRANSFERASE / ALBUMIN / ALKALINE PHOSPHATASE / ASPARTATE AMINOTRANSFERASE / BLOOD UREA NITROGEN / CARBON DIOXIDE / CHLORIDE / CHOLESTEROL / CREATINE PHOSPHOKINASE / CREATININE / GLUCOSE / LACTATE DEHYDROGENASE / LIPASE / PHOSPHORUS / POTASSIUM / SODIUM / TOTAL BILIRUBIN / TOTAL PROTEIN / URIC ACID: tissue Plasma
# [1] = 0 mg/kg, 72 h, dose level Control, time 3 day
# [2] = 0 mg/kg, 120 h, dose level Control, time 5 day
# [3] = 0.005 mg/kg, 72 h, dose level Low, time 3 day
compound,measurement,setting,value
CC(=O)O[C@H]1C[C@@H]2CC[C@@H]3[C@H](CC[C@@]4(C)[C@H]3C[C@H]([N+]3(C)CCCCC3)[C@@H]4OC(C)=O)[C@@]2(C)C[C@@H]1N1CCCCC1.[Br-] [VECURONIUM BROMIDE],ABSOLUTE BASOPHIL,[1],0 CELLS/uL
same,ABSOLUTE EOSINOPHIL,[1],0 CELLS/uL
same,ABSOLUTE LYMPHOCYTE,[1],11636.83 CELLS/uL
same,ABSOLUTE MONOCYTE,[1],159 CELLS/uL
same,ABSOLUTE SEGMENTED NEUTROPHIL,[1],1170.83 CELLS/uL
same,BASOPHIL,[1],0%
same,EOSINOPHIL,[1],0%
same,ERYTHROCYTE COUNT,[1],5.46 x10E6/uL
same,HEMATOCRIT,[1],34.05%
same,HEMOGLOBIN,[1],13.58 G/DL
same,LEUKOCYTE COUNT,[1],12.97 x10E3/uL
same,LYMPHOCYTE,[1],89.67%
same,MEAN CORPUSCULAR HEMOGLOBIN,[1],24.87 pg
same,MEAN CORPUSCULAR HEMOGLOBIN CONCENTRATION,[1],39.9 G/DL
same,MEAN CORPUSCULAR VOLUME,[1],62.3 fL
same,MONOCYTE,[1],1.33%
same,NEUTROPHIL,[1],9%
same,NUCLEATED RED BLOOD CELLS,[1],0.17 /100WBC
same,PLATELET COUNT,[1],824 x10E3/uL
same,ALANINE AMINOTRANSFERASE,[1],64.83 u/L
same,ALBUMIN,[1],4.08 G/DL
same,ALKALINE PHOSPHATASE,[1],421 u/L
same,ASPARTATE AMINOTRANSFERASE,[1],116.83 u/L
same,BLOOD UREA NITROGEN,[1],16.83 mg/dL
same,CARBON DIOXIDE,[1],28 mmol/L
same,CHLORIDE,[1],101.33 MEQ/L
same,CHOLESTEROL,[1],74.17 mg/dL
same,CREATINE PHOSPHOKINASE,[1],748.5 u/L
same,CREATININE,[1],0.22 mg/dL
same,GLUCOSE,[1],152.83 mg/dL
same,LACTATE DEHYDROGENASE,[1],578.5 u/L
same,LIPASE,[1],9.83 u/L
same,PHOSPHORUS,[1],11.63 mg/dL
same,POTASSIUM,[1],5.93 MEQ/L
same,SODIUM,[1],142.1 MEQ/L
same,TOTAL BILIRUBIN,[1],0.17 mg/dL
same,TOTAL PROTEIN,[1],5.77 G/DL
same,URIC ACID,[1],1.43 mg/dL
same,ABSOLUTE BASOPHIL,[2],0 CELLS/uL
same,ABSOLUTE EOSINOPHIL,[2],159.17 CELLS/uL
same,ABSOLUTE LYMPHOCYTE,[2],12267.5 CELLS/uL
same,ABSOLUTE MONOCYTE,[2],30 CELLS/uL
same,ABSOLUTE SEGMENTED NEUTROPHIL,[2],1160 CELLS/uL
same,BASOPHIL,[2],0%
same,EOSINOPHIL,[2],1.17%
same,ERYTHROCYTE COUNT,[2],5.52 x10E6/uL
same,HEMATOCRIT,[2],34.3%
same,HEMOGLOBIN,[2],13.73 G/DL
same,LEUKOCYTE COUNT,[2],13.62 x10E3/uL
same,LYMPHOCYTE,[2],90.5%
same,MEAN CORPUSCULAR HEMOGLOBIN,[2],24.92 pg
same,MEAN CORPUSCULAR HEMOGLOBIN CONCENTRATION,[2],40.07 G/DL
same,MEAN CORPUSCULAR VOLUME,[2],62.17 fL
same,MONOCYTE,[2],0.17%
same,NEUTROPHIL,[2],8.17%
same,NUCLEATED RED BLOOD CELLS,[2],0.17 /100WBC
same,PLATELET COUNT,[2],1261.83 x10E3/uL
same,ALANINE AMINOTRANSFERASE,[2],58.67 u/L
same,ALBUMIN,[2],4.15 G/DL
same,ALKALINE PHOSPHATASE,[2],364.67 u/L
same,ASPARTATE AMINOTRANSFERASE,[2],105.33 u/L
same,BLOOD UREA NITROGEN,[2],17.67 mg/dL
same,CARBON DIOXIDE,[2],26.5 mmol/L
same,CHLORIDE,[2],101.67 MEQ/L
same,CHOLESTEROL,[2],63 mg/dL
same,CREATINE PHOSPHOKINASE,[2],480.67 u/L
same,CREATININE,[2],0.17 mg/dL
same,GLUCOSE,[2],144.67 mg/dL
same,LACTATE DEHYDROGENASE,[2],540.33 u/L
same,LIPASE,[2],10.33 u/L
same,PHOSPHORUS,[2],11.52 mg/dL
same,POTASSIUM,[2],6.12 MEQ/L
same,SODIUM,[2],142.45 MEQ/L
same,TOTAL BILIRUBIN,[2],0.18 mg/dL
same,TOTAL PROTEIN,[2],5.73 G/DL
same,URIC ACID,[2],1.48 mg/dL
same,ABSOLUTE BASOPHIL,[3],0 CELLS/uL
same,ABSOLUTE EOSINOPHIL,[3],199.67 CELLS/uL
same,ABSOLUTE LYMPHOCYTE,[3],11233.67 CELLS/uL
same,ABSOLUTE MONOCYTE,[3],56 CELLS/uL
same,ABSOLUTE SEGMENTED NEUTROPHIL,[3],844 CELLS/uL
same,BASOPHIL,[3],0%
same,EOSINOPHIL,[3],1.33%
same,ERYTHROCYTE COUNT,[3],5.06 x10E6/uL
same,HEMATOCRIT,[3],32.6%
same,HEMOGLOBIN,[3],13.3 G/DL
same,LEUKOCYTE COUNT,[3],12.33 x10E3/uL
same,LYMPHOCYTE,[3],91.67%
same,MEAN CORPUSCULAR HEMOGLOBIN,[3],26.33 pg
same,MEAN CORPUSCULAR HEMOGLOBIN CONCENTRATION,[3],40.8 G/DL
same,MEAN CORPUSCULAR VOLUME,[3],64.5 fL
same,MONOCYTE,[3],0.33%
same,NEUTROPHIL,[3],6.67%
same,NUCLEATED RED BLOOD CELLS,[3],0.33 /100WBC
same,PLATELET COUNT,[3],730.67 x10E3/uL
same,ALANINE AMINOTRANSFERASE,[3],57 u/L
same,ALBUMIN,[3],4.2 G/DL
same,ALKALINE PHOSPHATASE,[3],421.67 u/L
same,ASPARTATE AMINOTRANSFERASE,[3],117.33 u/L
same,BLOOD UREA NITROGEN,[3],19 mg/dL
same,CARBON DIOXIDE,[3],31 mmol/L
same,CHLORIDE,[3],100.67 MEQ/L
same,CHOLESTEROL,[3],72 mg/dL
same,CREATINE PHOSPHOKINASE,[3],975.33 u/L
same,CREATININE,[3],0.22 mg/dL
same,GLUCOSE,[3],155.33 mg/dL
same,LACTATE DEHYDROGENASE,[3],630.33 u/L
same,LIPASE,[3],11.67 u/L
same,PHOSPHORUS,[3],10.7 mg/dL
same,POTASSIUM,[3],6.14 MEQ/L
same,SODIUM,[3],141.83 MEQ/L
same,TOTAL BILIRUBIN,[3],0.2 mg/dL
same,TOTAL PROTEIN,[3],5.87 G/DL
same,URIC ACID,[3],1.03 mg/dL
